# Experimental data: paper PMC9030254, “Target Hopping from Protein Kinases to PXR: Identification of Small-Molecule Protein Kinase Inhibitors as Selective Modulators of Pregnane X Receptor from TüKIC Library” (Cells, 2022)
# Assays:
# [1] = molecular target: T1, PXR interaction with corepressor SMRT (Homo sapiens, UniProt O75469); assay: Mammalian two-hybrid corepressor interaction assay; type: cell-based; conditions: HepG2, 10 µM
# T1 construct: VP16-PXR LBD(108–434); expressed in transfected cells; host or cells: HepG2
# T1 sequence (O75469 108-434): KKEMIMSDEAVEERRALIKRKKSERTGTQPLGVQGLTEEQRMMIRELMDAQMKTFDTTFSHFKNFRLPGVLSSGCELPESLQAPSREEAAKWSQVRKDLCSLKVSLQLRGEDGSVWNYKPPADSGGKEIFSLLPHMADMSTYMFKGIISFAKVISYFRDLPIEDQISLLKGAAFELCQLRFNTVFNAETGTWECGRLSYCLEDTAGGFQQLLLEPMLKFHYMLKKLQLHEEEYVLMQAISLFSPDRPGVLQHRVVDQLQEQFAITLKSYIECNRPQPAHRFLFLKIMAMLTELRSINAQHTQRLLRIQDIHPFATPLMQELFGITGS
# T1 sequence (P19793 1-462 partner): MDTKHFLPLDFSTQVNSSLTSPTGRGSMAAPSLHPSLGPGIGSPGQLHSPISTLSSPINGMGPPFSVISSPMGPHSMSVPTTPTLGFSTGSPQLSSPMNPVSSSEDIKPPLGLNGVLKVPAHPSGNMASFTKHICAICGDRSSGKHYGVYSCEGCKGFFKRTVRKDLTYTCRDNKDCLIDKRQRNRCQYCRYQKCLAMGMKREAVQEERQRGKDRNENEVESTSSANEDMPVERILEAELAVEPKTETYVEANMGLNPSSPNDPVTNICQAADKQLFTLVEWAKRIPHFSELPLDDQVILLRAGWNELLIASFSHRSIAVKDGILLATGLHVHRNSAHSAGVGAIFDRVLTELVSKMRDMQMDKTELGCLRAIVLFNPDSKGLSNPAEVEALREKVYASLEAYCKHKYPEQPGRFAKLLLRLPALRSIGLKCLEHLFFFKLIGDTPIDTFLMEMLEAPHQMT
# Method: In mammalian two-hybrid corepressor/coactivator interaction assays, per well 0.24 µg pGL4-G5, 0.01 µg pGL4.75[hRluc/CMV], 0.03 µg expression plasmid encoding VP16-AD/PXR LBD fusion, and 0.03 µg expression plasmids encoding GAL4-DBD/SRC1-RID or GAL4-DBD/SMRT-RID fusions, respectively, were used. For the SMRT corepressor interaction assay, additionally 0.015 µg of RXRα expression plasmid was included.
# VDR = molecular target: T2, VDR (Homo sapiens, UniProt P11473); assay: Nuclear receptor selectivity reporter assay, VDR; type: cell-based; conditions: for reduction of ligand-induced VDR activation: HepG2, 10 µM compound + 1 µM 1α,25(OH)2D3
# T2 construct: expressed in transfected cells; host or cells: HepG2
# T2 sequence (P11473 1-427): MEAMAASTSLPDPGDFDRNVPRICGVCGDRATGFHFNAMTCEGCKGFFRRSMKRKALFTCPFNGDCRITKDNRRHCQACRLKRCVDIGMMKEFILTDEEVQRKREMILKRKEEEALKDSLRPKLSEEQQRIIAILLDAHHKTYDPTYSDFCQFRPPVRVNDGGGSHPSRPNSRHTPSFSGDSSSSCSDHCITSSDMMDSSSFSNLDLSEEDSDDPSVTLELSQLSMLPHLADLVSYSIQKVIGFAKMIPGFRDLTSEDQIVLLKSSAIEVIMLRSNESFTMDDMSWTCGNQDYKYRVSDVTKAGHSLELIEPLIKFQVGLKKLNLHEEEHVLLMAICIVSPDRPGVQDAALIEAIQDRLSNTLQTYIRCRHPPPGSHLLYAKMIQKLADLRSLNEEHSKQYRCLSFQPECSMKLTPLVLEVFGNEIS
# Method: For testing nuclear receptor selectivity and LBP-filled PXR mutant activation, transient batch transfection was conducted as above, but with HepG2 cells and the following plasmids, with amounts per well of 0.23–0.27 µg pGL4-CYP3A4(-7830Δ7208-364) or pGL3(DR3)3Tk (as reporter for VDR), 0.01 µg pMetLuc2control, and 0.03 µg either CAR1, CAR3, VDR, or PXR(S208W/S247W/C284W) expression plasmids. In addition, 0.03 µg RXRα expression plasmid was added to CAR3 transfections. Metridia luciferase activity was measured from 10 µL of medium supernatant after adding 100 µL Renilla luciferase assay solution.
# Figure 6 Selectivity of novel PXR ligands within the NR1I group of nuclear receptors. HepG2 cells were transiently transfected with CYP3A4 reporter and expression plasmids encoding (A) CAR1 or (B) CAR3, or (C) direct repeat (DR3)3 reporter and expression plasmid encoding VDR. Cells were treated with 0.2% DMSO or 10 µM chemicals as indicated. 1α,25(OH)2D3 was used at 1 µM.
# ABCB1 = assay: PXR target gene mRNA expression in LS174T cells (RT-qPCR); conditions: for effect on rifampicin-mediated induction of ABCB1: 10 µM compound + 10 µM rifampicin, 72 h; for expression of ABCB1 mRNA: 10 µM single treatment, 48 h (109) or 72 h (73, 100)
# Method: In chemical treatments, phenol red-free DMEM was used, and regular FBS was replaced by dextran-coated charcoal-treated FBS. For gene expression analyses, 0.3 × 10^6 LS174T cells were seeded per well of a 12-well plate. The next day, chemical treatment was initiated for 48–72 h, with daily medium change.
# Total RNA was prepared from LS174T and HepaRG cells using the NucleoSpin RNA kit (Macherey-Nagel, Düren, Germany). RNA integrity was analyzed by formaldehyde-agarose gel electrophoresis. First strand cDNA was synthesized as described earlier [37]. Relative quantification analyses were conducted with TaqMan RT-PCR utilizing the BioMark HD system and FLEX Six Gene Expression Integrated Fluidic Circuits (Fluidigm, South San Francisco, CA, USA) as described previously [34]. TaqMan gene expression assays were either the commercially available predesigned assays Hs00184500_m1 (ABCB1) and Hs00604506_m1 (CYP3A4) (Thermo Fischer Scientific) or have been described previously: CYP2B6 [31] and 18S rRNA [39]. Data were analyzed as described previously [37]. Gene expression levels were normalized to respective 18S rRNA levels.
# PXR = molecular target: T3, PXR (Homo sapiens, UniProt O75469); assay: PXR-dependent CYP3A4 reporter gene assay, antagonist mode (cotreatment with rifampicin); type: cell-based; design: expressed in transfected cells; host or cells: H-P cells (HepG2 stably transfected with PXR); conditions: for IC50: read-out: IC50, inhibition of rifampicin-induced PXR activation
# T3 sequence (O75469 1-434): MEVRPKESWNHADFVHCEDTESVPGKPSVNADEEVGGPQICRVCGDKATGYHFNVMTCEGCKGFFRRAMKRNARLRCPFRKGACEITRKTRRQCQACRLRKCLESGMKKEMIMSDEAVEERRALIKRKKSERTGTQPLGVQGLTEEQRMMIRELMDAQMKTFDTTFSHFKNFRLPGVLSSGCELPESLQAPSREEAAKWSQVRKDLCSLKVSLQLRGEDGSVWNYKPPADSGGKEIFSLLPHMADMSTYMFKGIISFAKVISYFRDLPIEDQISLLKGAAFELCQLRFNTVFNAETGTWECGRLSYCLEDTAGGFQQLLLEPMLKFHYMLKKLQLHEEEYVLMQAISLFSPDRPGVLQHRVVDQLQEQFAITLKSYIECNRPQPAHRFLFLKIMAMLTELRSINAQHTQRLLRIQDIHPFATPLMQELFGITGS
# Text: Figure 1 Identification of novel putative PXR ligands from the TüKIC library. (A) Workflow of the in silico screening and structures of the identified candidate ligands. (B) Concentration–response curves of the novel inhibitors for antagonism of PXR activity. (C) Concentration–response curves of the same compounds and 109 for PXR activation. […] Data are expressed as mean ± SD fold induction with respect to the DMSO-treated cells from three independent experiments. IC50 and EC50 values calculated with nonlinear regression using formula with 3 parameters (constraint bottom =1) using GraphPadPrism.
# Supplementary Figure S1. Effects of 56 in silico screened TüKIC compounds (A) alone or (B) in combination […]
# H-P cells were transiently
# Luciferase activities were measured after 24 h treatment. Data is expressed as mean ± SD %. Activation was calculated according to Zhu et al. from three independent experiments with technical triplicates. Fold induction achieved by 10 μM […]
# Green and red dashed lines represent the 100% and 50% activation, respectively.
# (1 picture or pasted object on this page, not shown here)
Compound,effect on constitutive interaction of PXR with corepressor SMRT [1],"activation of VDR on their own (VDR; HepG2, 10 µM)",reduction of ligand-induced VDR activation (VDR),effect on rifampicin-mediated induction of ABCB1 (ABCB1),expression of ABCB1 mRNA (ABCB1),IC50 (PXR) [µM],"activation of VDR, % of the effect of 1α,25-dihydroxy vitamin D3 (VDR; HepG2, 10 µM) [%]","inhibition of rifampicin-mediated induction of CYP3A4 reporter activity (PXR; H-P cells, 10 µM compound + 10 µM rifampicin, 24 h)"
Cc1ccc(NC(=O)Cc2ccccc2)cc1Nc1ccc2c(c1)CCCCC2=O [Compound 73],impaired the constitutive interaction of PXR with the corepressor,Neither CAR3 nor VDR were activated,51%,suppressed its rifampicin-mediated induction,not induced,8.3,,
O=C(Nc1ccc(F)c(Nc2ccc3c(c2)CCCCC3=O)c1)c1cccc(F)c1 [Compound 109],impaired the constitutive interaction of PXR with the corepressor,,,,induced to a lesser extent than by rifampicin,,5,does not inhibit PXR
O=C(Cc1ccccc1)Nc1ccc(F)c(Nc2ccc3c(c2)CCCCC3=O)c1 [Compound 100],impaired the constitutive interaction of PXR with the corepressor,Neither CAR3 nor VDR were activated,no respective effects,suppressed its rifampicin-mediated induction,not induced,2.8,,
